Drawing on patent US8846951B2 (AbbVie Inc., priority 2009, dated 2014), this text covers EC50 and Emax for 17 compounds.

Read-outs that look alike come from different tables or passages of the source.

One may read the EC50 as the concentration giving half of the maximal effect. One may read the Emax as the size of the effect at its maximum, as opposed to the concentration needed.

Assay [1] deals with T1, 5HT2B receptors (Homo sapiens, UniProt P41595).
T1 construct: expressed in transfected cells; host or cells: CHO-K1 cells
The assay can be described thus: Human 5-HT2B functional high throughput screening assay in CHO-K1 cells (calcium flux). The assay is classed as cell-based. Conditions: for EC50: CHO-K1 cells, calcium flux; for Emax: 5-HT2B, maximum functional response as percentage relative to the effect of serotonin; call rule not given here. Here is the method:
(§1) (iii) Human 5-HT2C and 5-HT2B Functional High Throughput Screening Assays in CHO-K1 Cells
(§2) CHO-K1 cells over-expressing 5HT2C or 5HT2B receptors were grown in 1272 cm^2 flasks to 70-80% confluency in UltraCHO media (Lonza, Walkersville, Md.) supplemented with 1% dialyzed fetal bovine serum (FBS), 250 μg/mL zeocin, 100 U/mL penicillin and 100 μg/mL streptomycin, and 400 μg/mL geneticin. The cells were dissociated from the flasks using 0.05% trypsin, resuspended in Recovery™ cell culture freezing medium (Invitrogen, Carlsbad, Calif.) and stored in liquid nitrogen until use. The calcium flux experiments were done using frozen cells. The cells were diluted in media containing 1% dialyzed FBS and 100 U/mL penicillin and 100 μg/mL streptomycin and plated into 384-well poly-D-Lysine coated plates (15,000 cells/well). Then the plates were incubated overnight in a cell incubator at 37° C., 5% CO2. On the next day, the growth media was replaced with media without FBS and further incubated overnight. On day three, the changes in intracellular Ca^2+ were determined using calcium sensitive fluorescent dye, Ca4 (MDS Analytical Technologies, Sunnyvale, Calif.) by loading 15 μL of diluted dye in Hank's Balanced Salt Solution and 20 mM Hepes buffer (pH 7.4) with final concentration of 2.5 mM probenecid into the cells containing media. Then the cells were incubated at room temperature for 60 minutes in dark.
(§3) After incubation, the cell plates were transferred to FLIPR™ (MDS) and their fluorescence measurements were read at an excitation wavelength of 480 nm and an emission wavelength of 530 nm at 25° C. The baseline fluorescence was measured for the first 10 seconds and then 15 μL of 4× concentration of serotonin/test compound was added to the cells. The fluorescence intensity was captured every second for the first 1 minute followed by every 5 seconds for an additional 2 minutes. The increase in fluorescent response by a test compound was normalized to the response of serotonin and used to determine agonist activity. The concentration response of compounds was done from a starting concentration of 10 μM, 1:10 dilution across 6 wells with a final dimethyl sulfoxide concentration of 0.2% and was fitted using a 4-parameter logistic equation. The concentration at which a compound exerts half its maximal effect was named as ‘effective concentration 50’ or ‘EC50’. Emax is the maximum functional response or efficacy expressed as a percentage relative to the effect of serotonin.

In assay [2] the target is T2, 5HT2C receptors (Homo sapiens, UniProt P28335).
T2 sequence (P28335 33-458): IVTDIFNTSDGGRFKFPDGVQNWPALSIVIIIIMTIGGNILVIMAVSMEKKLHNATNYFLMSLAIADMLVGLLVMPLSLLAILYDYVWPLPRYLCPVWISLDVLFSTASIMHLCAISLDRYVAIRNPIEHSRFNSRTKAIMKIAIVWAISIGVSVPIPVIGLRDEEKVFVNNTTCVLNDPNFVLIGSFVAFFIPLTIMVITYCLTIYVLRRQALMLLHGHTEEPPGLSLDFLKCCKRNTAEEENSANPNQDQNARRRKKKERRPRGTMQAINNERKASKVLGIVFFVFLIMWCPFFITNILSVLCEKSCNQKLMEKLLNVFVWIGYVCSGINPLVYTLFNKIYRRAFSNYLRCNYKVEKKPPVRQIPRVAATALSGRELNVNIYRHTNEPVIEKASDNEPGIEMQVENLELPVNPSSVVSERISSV
Put plainly: Human 5-HT2C functional high throughput screening assay in CHO-K1 cells (calcium flux). It counts as cell-based. Details: expressed in transfected cells; host or cells: CHO-K1 cells. The note with it: for EC50: CHO-K1 cells, calcium flux; for Emax: CHO-K1, 5-HT2C, maximum functional response as percentage relative to the effect of serotonin. Here is the method:
as §1, §2, §3

Setting [3] is: 5-HT2B agonist activity, read-out: EC50.
The mark [4] stands for this setting: 5-HT2C agonist activity, read-out: EC50.

T1 sequence (P41595 whole entry): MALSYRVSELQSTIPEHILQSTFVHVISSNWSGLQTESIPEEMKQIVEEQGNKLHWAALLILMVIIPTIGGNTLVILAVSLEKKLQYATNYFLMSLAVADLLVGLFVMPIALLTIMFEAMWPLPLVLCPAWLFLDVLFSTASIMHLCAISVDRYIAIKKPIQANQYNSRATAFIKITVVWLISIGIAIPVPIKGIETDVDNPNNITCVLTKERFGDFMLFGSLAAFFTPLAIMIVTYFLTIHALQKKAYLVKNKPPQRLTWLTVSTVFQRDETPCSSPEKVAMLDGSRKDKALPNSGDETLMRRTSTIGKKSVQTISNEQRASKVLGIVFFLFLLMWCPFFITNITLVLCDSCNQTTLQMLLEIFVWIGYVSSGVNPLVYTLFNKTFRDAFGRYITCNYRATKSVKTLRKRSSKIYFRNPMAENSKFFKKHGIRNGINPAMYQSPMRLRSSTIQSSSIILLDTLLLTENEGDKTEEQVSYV

With `CN1C[C@H]2CNC(=O)c3c(-c4ccccc4)cccc3[C@@H]2C1` (relative stereo) [Example 114, Trans-2-methyl-7-phenyl-1,2,3,3a,4,5-hexahydrobenzo[c]pyrrolo[3,4-e]azepin-6(10bH)-one], the figures for the EC50 in assay [1] (setting [3]) and in assay [2] (setting [4]) were over 10000 nM and 5000 nM, respectively. The Emax entry in assay [1] was “inactive”; in assay [2] (read-out: Emax) it was 80%.

Turning to `O=C1NC[C@@H]2CN(Cc3ccccc3)C[C@H]2c2ccc(O)cc21` (relative stereo) [Example 117, Trans-2-benzyl-8-hydroxy-1,2,3,3a,4,5-hexahydrobenzo[e]pyrrolo[3,4-c]azepin-6(10bH)-one], the EC50 is over 10000 nM in assay [1] (setting [3]) and 200 nM in assay [2] (setting [4]). Further, the Emax result was “inactive” in assay [1] and over 120% in assay [2] (read-out: Emax).

On to `O=C1NC[C@@H]2CN(Cc3ccccc3)C[C@H]2c2ccc(OCCc3cccc(F)c3)cc21` (relative stereo) [Example 119, Trans-2-benzyl-8-(3-fluorophenethoxy)-1,2,3,3a,4,5-hexahydrobenzo[e]pyrrolo[3,4-c]azepin-6(10bH)-one], for which the figures for the EC50 in assay [1] (setting [3]) and in assay [2] (setting [4]) were over 10000 nM and 100 nM, respectively. In addition, the results for the Emax result in assay [1] and in assay [2] (read-out: Emax) were “inactive” and over 120%, respectively.

Consider `O=C1NC[C@@H]2CN(Cc3ccccc3)C[C@H]2c2ccc(OCCc3ccccc3)cc21` (relative stereo) [Example 121, Trans-2-benzyl-8-phenethoxy-1,2,3,3a,4,5-hexahydrobenzo[e]pyrrolo[3,4-c]azepin-6(10bH)-one], for which the EC50 in assay [1] (setting [3]) was over 10000 nM; in assay [2] (setting [4]), 200 nM. Besides, the Emax result in assay [1] is “inactive”; in assay [2] (read-out: Emax) it was 120%.

As to `CN1C[C@H]2CNC(=O)c3cc(C(=O)N4CCCCC4)ccc3[C@@H]2C1` (relative stereo) [Example 122, Trans-2-methyl-8-(piperidine-1-carbonyl)-1,2,3,3a,4,5-hexahydrobenzo[e]pyrrolo[3,4-c]azepin-6(10bH)-one], the figures for the EC50 in assay [1] (setting [3]) and in assay [2] (setting [4]) were over 10000 nM and 6000 nM, respectively. Moreover, the maximum response (Emax) result in assay [1] was “inactive”; in assay [2] (read-out: Emax), 100%.

Regarding `O=C1NC[C@@H]2CNC[C@H]2c2ccc(OCCc3ccccc3)cc21` (relative stereo) [Example 123, Trans-8-phenethoxy-1,2,3,3a,4,5-hexahydrobenzo[e]pyrrolo[3,4-c]azepin-6(10bH)-one], the Emax entry in assay [1] was “inactive”; in assay [2], 120%. Besides, the EC50 in assay [1] (EC50, 5-HT2B agonist activity) was over 10000 nM; in assay [2] (EC50, 5-HT2C agonist activity), 10 nM.

Consider `O=C1NC[C@@H]2CNC[C@H]2c2ccc(OCCc3cccc(F)c3)cc21` (relative stereo) [Example 124, Trans-8-(3-fluorophenethoxy)-1,2,3,3a,4,5-hexahydrobenzo[e]pyrrolo[3,4-c]azepin-6(10bH)-one], for which the concentration for a half-maximal effect (EC50) in assay [1] (setting [3]) was over 10000 nM; in assay [2] (setting [4]) it was 20 nM. Besides, the Emax result in assay [1] was “inactive”; in assay [2] (read-out: Emax), over 120%.

Take `CNC(=O)c1ccc2c(c1)C(=O)NC[C@@H]1CN(C)C[C@@H]21` (relative stereo) [Example 125, Trans-N,2-dimethyl-6-oxo-1,2,3,3a,4,5,6,10b-octahydrobenzo[e]pyrrolo[3,4-c]azepine-8-carboxamide]: the EC50 was over 10000 nM in assay [1] (setting [3]) and 2000 nM in assay [2] (setting [4]). For the same compound, the values for the maximal response (Emax) entry in assay [1] and in assay [2] (read-out: Emax) were “inactive” and 90%, respectively.

On to `CN1C[C@H]2CNC(=O)c3cc(C(=O)NCCc4ccccc4)ccc3[C@@H]2C1` (relative stereo) [Example 126, Trans-2-methyl-6-oxo-N-phenethyl-1,2,3,3a,4,5,6,10b-octahydrobenzo[e]pyrrolo[3,4-c]azepine-8-carboxamide], for which the EC50 in assay [1] (setting [3]) was over 10000 nM; in assay [2] (setting [4]), 6000 nM. Further, the Emax result in assay [1] is “inactive”; in assay [2] (read-out: Emax), 60%.

Consider `CN1C[C@H]2CNC(=O)c3cc(C(=O)NCCc4cccc(C(F)(F)F)c4)ccc3[C@@H]2C1` (relative stereo) [Example 127, Trans-2-methyl-6-oxo-N-(3-(trifluoromethyl)phenethyl)-1,2,3,3a,4,5,6,10b-octahydrobenzo[e]pyrrolo[3,4-c]azepine-8-carboxamide], for which the EC50 in assay [1] (setting [3]) was over 10000 nM; in assay [2] (setting [4]) it was 1000 nM. The Emax result in assay [1] was “inactive”; in assay [2] (read-out: Emax) it was 80%.

`CN1C[C@H]2CNC(=O)c3cc(C(=O)Nc4ccccc4)ccc3[C@@H]2C1` (relative stereo) [Example 128, Trans-2-methyl-6-oxo-N-phenyl-1,2,3,3a,4,5,6,10b-octahydrobenzo[e]pyrrolo[3,4-c]azepine-8-carboxamide]: the results for the EC50 in assay [1] (setting [3]) and in assay [2] (setting [4]) were over 10000 nM and 2000 nM, respectively. Besides, the results for the Emax entry in assay [1] and in assay [2] (read-out: Emax) were “inactive” and 50%, respectively.

Take `COC(=O)c1ccc2c(c1)C(=O)NC[C@@H]1CN(Cc3ccccc3)C[C@@H]21` (relative stereo) [Example 129, Trans-methyl 2-benzyl-6-oxo-1,2,3,3a,4,5,6,10b-octahydrobenzo[e]pyrrolo[3,4-c]azepine-8-carboxylate]: the results for the EC50 in assay [1] (setting [3]) and in assay [2] (setting [4]) were over 10000 nM and 200 nM, respectively. Also, the maximum response (Emax) result in assay [1] is “inactive”; in assay [2] (read-out: Emax), over 120%.

As to `COc1ccc2c(c1)C(=O)NC[C@@H]1CN(Cc3ccccc3)C[C@H]21` (relative stereo) [Example 130, Cis-2-benzyl-8-methoxy-1,2,3,3a,4,5-hexahydrobenzo[e]pyrrolo[3,4-c]azepin-6(10bH)-one], the EC50 is over 10000 nM in assay [1] (setting [3]) and 900 nM in assay [2] (setting [4]). Besides, the figures for the Emax result in assay [1] and in assay [2] (read-out: Emax) were “inactive” and 100%, respectively.

In the case of `COc1ccc(-c2ccc3c(c2)C(=O)NC[C@@H]2CN(C)C[C@@H]32)cc1` (relative stereo) [Example 131, Trans-8-(4-methoxyphenyl)-2-methyl-1,2,3,3a,4,5-hexahydrobenzo[e]pyrrolo[3,4-c]azepin-6(10bH)-one], the EC50 in assay [1] (setting [3]) was over 10000 nM. For the same compound, the Emax entry in assay [1] was “inactive”; in assay [2] (read-out: Emax) it was over 120%.

Turning to `CN1C[C@H]2CNC(=O)c3cc(-c4cccc(OC(F)(F)F)c4)ccc3[C@@H]2C1` (relative stereo) [Example 132, Trans-2-methyl-8-(3-(trifluoromethoxy)phenyl)-1,2,3,3a,4,5-hexahydrobenzo[e]pyrrolo[3,4-c]azepin-6(10bH)-one], the half-maximal effective concentration (EC50) was over 10000 nM in assay [1] (setting [3]) and 20 nM in assay [2] (setting [4]). In addition, the maximal response (Emax) entry in assay [1] was “inactive”; in assay [2] (read-out: Emax), over 120%.

On to `COc1cccc(-c2ccc3c(c2)C(=O)NC[C@@H]2CN(C)C[C@@H]32)c1` (relative stereo) [Example 133, Trans-8-(3-methoxyphenyl)-2-methyl-1,2,3,3a,4,5-hexahydrobenzo[e]pyrrolo[3,4-c]azepin-6(10bH)-one], for which the EC50 in assay [1] (setting [3]) is over 10000 nM. For the same compound, the values for the Emax result in assay [1] and in assay [2] (read-out: Emax) were “inactive” and over 120%, respectively.

With `CC(C)COc1cccc(-c2ccc3c(c2)C(=O)NC[C@@H]2CN(C)C[C@@H]32)c1` (relative stereo) [Example 134, Trans-8-(3-isobutoxyphenyl)-2-methyl-1,2,3,3a,4,5-hexahydrobenzo[e]pyrrolo[3,4-c]azepin-6(10bH)-one], the EC50 was over 10000 nM in assay [1] (setting [3]) and 60 nM in assay [2] (setting [4]). The maximum response (Emax) result in assay [1] was “inactive”; in assay [2] (read-out: Emax) it was over 120%.
